The results in this text go back to article PMC9977398, “Next-generation membrane-active glycopeptide antibiotics that also inhibit bacterial cell division” (Chemical Science, 2023).

One experiment has as its system MRSA. The experiment is described as follows: Frequency of resistance. In kind it is cell-based, S. aureus. The text has this: Having observed the multiple mechanisms of VanQAmC10, the potential as a preclinical candidate was examined. […] The frequency of resistance for both vancomycin and VanQAmC10 against MRSA was <10^−8 indicating the absence of spontaneous mutants.

Another experiment deals with ΔamiAC MG1655 E. coli. The experiment can be described thus: Antibacterial activity against ΔamiAC MG1655 E. coli. As to conditions: LB media, 18 h. In kind it is cell-based. The procedure:
The bacterial amidases help cleave the septum in the final stage of cell division to produce daughter cells.[39] In the absence of amidases, chains of unseparated cells are formed (Fig. 5D). These retain distinct cytoplasmic compartments but share an outer membrane.[39] These cells are known to be hypersensitive to antibiotics and detergents. However, ΔamiAC mutations are resistant to killing by cephalexin.[38] The MIC of VanQAmC10 against the ΔamiAC mutant was reduced to 4 μM, while that of vancomycin was >10 μM. […] This is indicative of impaired cell division. Cell debris due to lysis after compound treatment are also visible. […]
resuspended in prewarmed BMM media. 1:1 BAC light dye was then added to the bacterial suspension and incubated for 5 minutes. The fluorescence in the GFP and Texas red channels was then observed under the microscope. The experiments were performed three times independently and the images are representative of results from three independent experiments. […]
About 6 μl of sample was immobilized on 1% agarose pad . DIC and fluorescence images were obtained at different time intervals using Nikon Eclipse Ti Microscope equipped with Nikon DS-U3 camera through Plan Apo 100×/1.40 oil objective. […]
from 10 μg/mL. The bacteria with compounds and untreated control were incubated for 18 h at 37 ̊C under shaking and OD600 was measured. […]

In the case of `CN[C@H](CC(C)C)C(=O)N[C@H]1C(=O)N[C@@H](CC(N)=O)C(=O)N[C@H]2C(=O)N[C@H]3C(=O)N[C@H](C(=O)N[C@H](C(=O)O)c4cc(O)cc(O)c4-c4cc3ccc4O)[C@H](O)c3ccc(c(Cl)c3)Oc3cc2cc(c3O[C@@H]2O[C@H](CO)[C@@H](O)[C@H](O)[C@H]2O[C@H]2C[C@](C)(N)[C@H](O)[C@H](C)O2)Oc2ccc(cc2Cl)[C@H]1O` [Vancomycin, reference compound], the frequency of resistance in the experiment with MRSA is reported as < 10^−8. Moreover, in the experiment with ΔamiAC MG1655 E. coli, the “MIC against the ΔamiAC mutant” value was more than 10 µM.

As for `CCCCCCCCCCNC(=O)C[N+](C)(C)CCCNC(=O)C1NC(=O)C2NC(=O)C(NC(=O)C3NC(=O)C(CC(N)=O)NC(=O)C(NC(=O)C(CC(C)C)NC)C(O)c4ccc(c(Cl)c4)Oc4cc3cc(c4OC3OC(CO)C(O)C(O)C3OC3CC(C)(N)C(O)C(C)O3)Oc3ccc(cc3Cl)C2O)c2ccc(O)c(c2)-c2c(O)cc(O)cc21` (stereo not shown) [VanQAmC10 (8)], the frequency of resistance in the experiment on MRSA is recorded as < 10^−8. The “MIC against the ΔamiAC mutant” value against ΔamiAC MG1655 E. coli stood at 4 µM.
